Columns and labels:
[1] = system: patients with severe plaque-type psoriasis
[2] = biological target: PDE3 from human platelets (Homo sapiens, UniProt Q14432); experiment: PDE3 enzyme assay; type: biochemical; conditions: from PDE inhibition data of Table 1
bovine PDE1 = experiment: PDE1 enzyme assay; type: biochemical; conditions: from PDE inhibition data of Table 1
[3] = system: LPS-induced pulmonary neutrophilia; experiment: LPS-induced lung neutrophilia conscious ferret model; type: in vivo; conditions: threshold emetic dose divided by ED50 for pulmonary neutrophilia
From the text: The conscious ferret model has been used to investigate anti-inflammatory, emetic and behavioral effects of PDE4 inhibitors when administered by the oral (p.o.) route. From these experiments, a therapeutic index (TI) for each PDE4 inhibitor may be determined. The TI has been calculated by dividing the threshold dose for causing emetic episodes and behavioral changes by the anti-inflammatory dose (dose that causes 50% inhibition of the LPS-induced neutrophilia). […]
Thirty minutes after p.o. dosing with compound or vehicle control, the ferrets were placed into sealed Perspex containers and exposed to an aerosol of LPS (100 µg/ml) for 10 minutes. […] Observation continued for a period of at least 2.5 hours post p.o. dosing and emetic episodes and behavioral changes were recorded. […]
The bronchoalveolar lavage (BAL) samples were centrifuged at 1,500 rpm for 5 minutes. […] From this, the total number of neutrophils in the BAL was determined.
• 1. % Inhibition of LPS-induced pulmonary neutrophilia. • 2. Emetic episodes - the number of vomits and retches were counted. • 3. […] Any behavioral changes were semi-quantified by applying a severity rating (mild, moderate or severe). • 4. The TI was calculated as the highest dose found to not cause emetic episodes divided by the lowest dose found to inhibit pulmonary neutrophilia by 50% or more.

[4] = Equilibrium aqueous solubility in pH 7.4 buffer; type: physicochemical
Description: Equilibrium solubilities were measured in pH 7.4 aqueous buffer. The pH 7.4 buffer was prepared by adjusting the pH of a 0.07 M NaH2PO4 solution to 7.4 with 10 N NaOH. The ionic strength of the solution was 0.15. At least 1 mg of powder was combined with 1 ml of buffer to make >1 mg/ml mixture. These samples were shaken for >2 hours and left to stand overnight at room temperature. The samples were then filtered through a 0.45-µm Nylon syringe filter that was first saturated with the sample. The filtrate was sampled twice, consecutively. The filtrate was assayed by HPLC against standards prepared in 50% methanol.

[5] = biological target: PDE5 from human platelets (Homo sapiens, UniProt O76074); experiment: PDE5 enzyme assay; type: biochemical; conditions: from PDE inhibition data of Table 1
[6] = 20 mg orally daily, number of patients
[7] = responders (≥ 20% epidermal thickness reduction), 8 patients, Day 29

Chain of PDE3 from human platelets (Q14432 whole entry): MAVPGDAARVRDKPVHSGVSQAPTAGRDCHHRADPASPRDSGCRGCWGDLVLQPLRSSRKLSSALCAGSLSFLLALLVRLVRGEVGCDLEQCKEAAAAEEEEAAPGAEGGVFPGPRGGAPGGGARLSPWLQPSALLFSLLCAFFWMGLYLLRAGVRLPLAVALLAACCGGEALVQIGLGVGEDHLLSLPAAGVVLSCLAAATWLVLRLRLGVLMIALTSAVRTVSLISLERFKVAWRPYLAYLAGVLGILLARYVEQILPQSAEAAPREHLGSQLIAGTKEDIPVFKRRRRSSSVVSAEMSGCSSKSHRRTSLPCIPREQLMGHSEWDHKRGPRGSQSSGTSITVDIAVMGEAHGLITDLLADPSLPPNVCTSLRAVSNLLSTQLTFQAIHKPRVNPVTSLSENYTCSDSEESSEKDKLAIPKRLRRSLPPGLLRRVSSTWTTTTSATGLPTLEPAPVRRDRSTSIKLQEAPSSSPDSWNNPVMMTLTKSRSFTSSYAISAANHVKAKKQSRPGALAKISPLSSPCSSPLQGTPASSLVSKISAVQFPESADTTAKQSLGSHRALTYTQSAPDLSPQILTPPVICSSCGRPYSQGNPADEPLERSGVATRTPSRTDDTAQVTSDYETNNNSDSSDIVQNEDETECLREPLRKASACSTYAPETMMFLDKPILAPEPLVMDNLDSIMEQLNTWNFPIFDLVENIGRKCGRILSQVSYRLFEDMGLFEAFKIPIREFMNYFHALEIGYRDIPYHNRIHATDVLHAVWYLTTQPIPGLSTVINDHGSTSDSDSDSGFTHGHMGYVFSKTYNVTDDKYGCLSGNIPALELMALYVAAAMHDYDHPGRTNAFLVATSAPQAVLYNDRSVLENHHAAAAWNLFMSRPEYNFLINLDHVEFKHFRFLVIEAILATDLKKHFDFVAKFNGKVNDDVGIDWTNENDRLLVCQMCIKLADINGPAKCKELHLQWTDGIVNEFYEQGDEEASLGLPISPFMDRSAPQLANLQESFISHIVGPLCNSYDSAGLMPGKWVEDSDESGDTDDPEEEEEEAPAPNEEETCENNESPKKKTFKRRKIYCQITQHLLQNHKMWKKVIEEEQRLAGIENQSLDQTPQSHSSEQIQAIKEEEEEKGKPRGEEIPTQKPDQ

With `CCOc1cc(C(CS(C)(=O)=O)N2C(=O)c3cccc(NC(C)=O)c3C2=O)ccc1OC` (single isomer, unassigned; (+)) [Compound A, (+)-2-[1-(3-ethoxy-4-methoxyphenyl)-2-methylsulfonylethyl]-4-acetylaminoisoindoline-1,3-dione] the “patients with abnormal HLA-DR that had normal HLA-DR at Day 29” value [1, 6] was “Two”, the “patients with abnormal ICAM-1 at baseline that had normal ICAM-1 at Day 29” value [1, 6] was “Three” and the “patients with abnormal K16 at baseline that had normal K16 at Day 29” value [1, 6] was “one”. The “patients with abnormal fillagrin at baseline that had normal fillagrin at Day 29” value [1, 6] was “three”, the “safety (overall conclusion)” value ([1]; 20 mg p.o. QD for 29 days) was “safe” and the “Percentage Reduction of Key Inflammatory Markers at Day 29: CD11c, Dermis” value ([1]; Responder, signed change) was -18.50%. For the same compound, the “Percentage Reduction of Key Inflammatory Markers at Day 29: CD11c, Epidermis” value ([1]; Responder, signed change) was -40.16%, the “Percentage Reduction of Key Inflammatory Markers at Day 29: CD83+, Dermis” value ([1]; Responder, signed change) was -25.86% and the “Percentage Reduction of Key Inflammatory Markers at Day 29: CD83+, Epidermis” value ([1]; Responder, signed change) was -32.50%. The “Percentage Reduction of Key Inflammatory Markers at Day 29: T-cells, Dermis” value ([1]; Responder, signed change) was -28.79%, the “Percentage Reduction of Key Inflammatory Markers at Day 29: T-cells, Epidermis” value ([1]; Responder, signed change) was -42.56% and the “decrease of dermal T-cells” value [1, 7] was 28.79%. The “decrease of epidermal T-cells” value [1, 7] was 42.56%, the “CD11c cells reduced in the dermis” value ([1]; responders, Day 29) was 18.50% and the “CD11c cells reduced in the epidermis” value ([1]; responders, Day 29) was 40.16%. For the same compound, the “Mean reduction from baseline in dermal CD83+ cells” value ([1]; responders, Day 29) was 25.86%, the “Mean reduction from baseline in epidermal CD83+ cells” value ([1]; responders, Day 29) was 32.50% and the deaths ([1]; treatment and follow-up phases) was “No deaths were reported”. For the same compound, the “PDE Specificity Ratio PDE4/PDE3” value [2] was >1200 fold, the “PDE Specificity Ratio PDE4/PDE1” value (bovine PDE1) was >500 fold and the Therapeutic index [3] was 12. The “aqueous solubility greater than the racemic mixture” value [4] was 3.5 fold and the “PDE Specificity Ratio PDE4/PDE5” value [5] was >30000 fold.
